{"source": "patent US8475839B2", "about": "(Novartis AG, priority 2006, dated 2013)", "origin": "cited, not measured here", "key": {"[1]": {"assay": "not given", "remark": "listed apart in the source"}}, "data": [{"smiles": "CCOC(=O)C1=C(COCCN)NC(C)=C(C(=O)OC)C1c1ccccc1Cl", "note": "(centres unmarked) [Amlodipine besylate, 3-ethyl-5-methyl-2(2-aminoethoxymethyl)-4-(2-chlrorophenyl)-1,4-dihydro-6-methyl-3,5-pyridinedicarboxylate benzenesulphonate]", "values": [{"measurement": "absolute oral bioavailability", "result": "64-90%"}, {"measurement": "solubility in water", "setting": "[1]", "result": "slightly soluble"}]}, {"smiles": "CCCCC(=O)N(Cc1ccc(-c2ccccc2-c2nnn[nH]2)cc1)[C@H](C(=O)O)C(C)C", "note": "[valsartan, (S)-N-valeryl-N-{[2′-(1H-tetrazole-5-yl)-biphenyl-4-yl]-methyl}-valine]", "values": [{"measurement": "absolute oral bioavailability", "result": "about 25%"}, {"measurement": "absolute oral bioavailability, wide range", "setting": "range around the about 25% value", "result": "10-35%"}]}, {"smiles": "NS(=O)(=O)c1cc2c(cc1Cl)NCNS2(=O)=O", "note": "[Hydrochlorothiazide]", "values": [{"measurement": "absolute oral bioavailability", "result": "60-80%"}]}]}
